Experiments:
[1] = Measurement of solubility of photoacid generators in photoresist solvents; assay type: physicochemical; settings: for Solubility (w/v %) PGMEA: solvent PGMEA; for Solubility (w/v %) Cyclohexane: solvent cyclohexane
Description: In preparing a photoresist composition, solubility of a photoacid generator is very important.

[2] = Measurement of thermal stability by thermogravimetric analyzer; assay type: physicochemical
Description: If a photoacid generator is thermally stable in a photoresist preparation process, a very good effect in terms of stability can be expected.

For `CCCCOC(CCC)c1ccc2c3c(cccc13)C(=O)N(OS(=O)(=O)C(F)(F)F)C2=O` (stereo not shown) [Compound 8], the “Solubility (w/v %) PGMEA” value [1] was 50.0 w/v %, the “Solubility (w/v %) Cyclohexane” value [1] was 62.3 w/v % and the “Temperature at which 5% weight loss occurred” value [2] was 232 °C.

For `O=C1c2cccc3cccc(c23)C(=O)N1OS(=O)(=O)C(F)(F)F` [Formula II, reference compound], the “Solubility (w/v %) PGMEA” value [1] was 1.7 w/v %, the “Solubility (w/v %) Cyclohexane” value [1] was 5.8 w/v % and the “Temperature at which 5% weight loss occurred” value [2] was 223 °C.

In the case of `CCCCOCCOC(CCC)c1ccc2c3c(cccc13)C(=O)N(OS(=O)(=O)C(F)(F)F)C2=O` (stereo not shown) [Compound 20], the “Solubility (w/v %) PGMEA” value [1] is reported as 45.0 w/v %, the “Solubility (w/v %) Cyclohexane” value [1] is reported as 54.1 w/v % and the “Temperature at which 5% weight loss occurred” value [2] is reported as 235 °C.

With `CCCC(OC)c1ccc2c3c(cccc13)C(=O)N(OS(=O)(=O)C(F)(F)F)C2=O` (stereo not shown) [Compound 11] the “Temperature at which 5% weight loss occurred” value [2] was 230 °C.

With `CCCC(OCCOC)c1ccc2c3c(cccc13)C(=O)N(OS(=O)(=O)C(F)(F)F)C2=O` (stereo not shown) [Compound 19] the “Solubility (w/v %) PGMEA” value [1] was 60.0 w/v %, the “Solubility (w/v %) Cyclohexane” value [1] was 64.1 w/v % and the “Temperature at which 5% weight loss occurred” value [2] was 234 °C.

Source: US12625427B2, “Naphthalimide sulfonate derivative, and photoacid generator and photoresist composition each comprising same” (SAMYANG CORPORATION, priority 2020, dated 2026)
